These results are taken from PMC5983823, “Screening of Natural Product Derivatives Identifies Two Structurally Related Flavonoids as Potent Quorum Sensing Inhibitors against Gram-Negative Bacteria” (International Journal of Molecular Sciences, 2018).

The test system of one test is E. coli K-12. Description: Viable plate counts (bacterial growth). It counts as cell-based, Escherichia coli. The note with it: 100 and 400 µM, 24 h. Here is the method: Effects of the leads on bacterial growth were assessed by performing viable plate counts. Compounds at final concentrations of 100 and 400 µM and cultures of P. aeruginosa (ATCC 9027, ATCC 15422 and PA01) and E. coli K-12 (10^6 CFU/mL) were simultaneously added to the 96-microtiter well plates (200 µL per well). Untreated bacteria were included in control wells. The plates were incubated at 37 °C, without shaking for 24 h. At the end of this period, bacterial suspensions were transferred from the wells to Eppendorf tubes, and the tubes were sonicated for 10 min (25 °C, 35 kHz, Sonorex Digitec water bath (Bandelin, Zurich, Switzerland)). Each suspension was serially diluted in LB and plated on LB agar. The number of viable bacteria in each test concentration was counted after overnight incubation at 37 °C. Results were expressed as CFU/mL.

For a further test, the system named is C. violaceum ATCC 31532. The experiment in a line: Violacein extraction assay (QS-mediated violacein production). The format is cell-based. As to conditions: Chromobacterium violaceum, ATCC31532, 40 µM, C. violaceum ATCC 31532, mean ± SD of three independent tests; read-out: Inhibition-% of violacein production.
The test system of a further test is C. violaceum. On the set-up: method as in PMID 27626397. As to conditions: cited from earlier work.

The inhibition is the percentage by which the read-out fell short of the control.

Take `CCCCCCCCCC(=O)Oc1c(-c2ccc(OC)cc2)oc2ccccc2c1=O` [Compound 2896, 2-(4-methoxyphenyl)-4-oxochromen-3-yl decanoate]: in the test with E. coli K-12, the “Bactericidal activity by viable plate counts” value is “Neither of the leads displayed any bactericidal activity”. The inhibition at 40 µM in the test with C. violaceum ATCC 31532 was 83.5 ± 1.4%.

As for `CCC(=O)Oc1c(-c2ccccc2Cl)oc2ccccc2c1=O` [Compound 2117, 2-(2-chlorophenyl)-4-oxochromen-3-yl propanoate], in the test with E. coli K-12, the “Bactericidal activity by viable plate counts” value was “Neither of the leads displayed any bactericidal activity”. For the same compound, the inhibition at 40 µM with C. violaceum ATCC 31532 was more than 90%. Besides, the “Anti-QS activity class in earlier screening” value in the test on C. violaceum is “among the most active compounds”.
